For data set [1], the system named is Alopecurus myosuroides (ALOMY). Kind of data set: Example A pre-emergence herbicidal activity, glasshouse pot test. The class given is in vivo. The settings on record: 480 h, evaluated 20 days after spraying, read-out: Pre-emergence activity ALOMY (100=total damage to plant; 0=no damage to plant); for pest or weed control at 250 g/ha: rate 250 g/ha; for pest or weed control at 500 g/ha: rate 500 g/ha. The procedure:
(§1) Seeds of a variety of test species were sown in standard soil in pots. After cultivation for one day (pre-emergence) or after 10 days cultivation (post-emergence) under controlled conditions in a glasshouse, the plants were sprayed with an aqueous spray solution derived from the formulation of the technical active ingredient in 0.6 ml acetone and 45 ml formulation solution containing 10.6% Emulsogen EL (Registry number 61791-12-6), 42.2% N-methylpyrrolidone, 42.2% dipropylene glycol monomethyl ether (Registry number 34590-94-8) and 0.2% X-77 (Registry number 11097-66-8). The test plants were then grown in a greenhouse under optimum conditions until, 15 days later for post-emergence and 20 days for pre-emergence, the test was evaluated (100=total damage to plant; 0=no damage to plant).
(§2) Alopecurus myosuroides (ALOMY), Avena fatua (AVEFA), Lolium perenne (LOLPE), Setaria faberi (SETFA), Digitaria sanguinalis (DIGSA), Echinochloa crus-galli (ECHCG)

Data set [2] deals with Avena fatua (AVEFA). The description is as above. Type of data set: in vivo. Particulars: 480 h, evaluated 20 days after spraying, read-out: Pre-emergence activity AVEFA (100=total damage to plant; 0=no damage to plant); for pest or weed control at 250 g/ha: rate 250 g/ha; for pest or weed control at 500 g/ha: rate 500 g/ha. Here is the method:
as §1, §2

Data set [3] deals with Digitaria sanguinalis (DIGSA). Described as above. The class given is in vivo. Particulars: 480 h, evaluated 20 days after spraying, read-out: Pre-emergence activity DIGSA (100=total damage to plant; 0=no damage to plant); for pest or weed control at 250 g/ha: rate 250 g/ha; for pest or weed control at 500 g/ha: rate 500 g/ha. Here is the method:
as §1, §2

Data set [4] has as its system Echinochloa crus-galli (ECHCG). The description is as above. The class given is in vivo. Particulars: 480 h, evaluated 20 days after spraying, read-out: Pre-emergence activity ECHCG (100=total damage to plant; 0=no damage to plant); for pest or weed control at 250 g/ha: rate 250 g/ha; for pest or weed control at 500 g/ha: rate 500 g/ha. The procedure:
as §1, §2

In data set [5] the test system is Lolium perenne (LOLPE). Described as above. Type of data set: in vivo. The settings on record: 480 h, evaluated 20 days after spraying, read-out: Pre-emergence activity LOLPE (100=total damage to plant; 0=no damage to plant); for pest or weed control at 250 g/ha: rate 250 g/ha; for pest or weed control at 500 g/ha: rate 500 g/ha. The procedure: as §1, §2
Data set [6] relates to Setaria faberi (SETFA). The description is as above. The class given is in vivo. The settings on record: 480 h, evaluated 20 days after spraying, read-out: Pre-emergence activity SETFA (100=total damage to plant; 0=no damage to plant); for pest or weed control at 250 g/ha: rate 250 g/ha; for pest or weed control at 500 g/ha: rate 500 g/ha. Here is the method:
as §1, §2

The test system of data set [7] is Alopecurus myosuroides (ALOMY). The data set can be described thus: Example A post-emergence herbicidal activity, glasshouse pot test. The class given is in vivo. The settings on record: 360 h, rate 125 g/ha, evaluated 15 days after spraying, read-out: Post-emergence activity ALOMY (100=total damage to plant; 0=no damage to plant). Here is the method:
as §1, §2

Data set [8] concerns Avena fatua (AVEFA). The data set is described as above. The class given is in vivo. Particulars: 360 h, rate 125 g/ha, evaluated 15 days after spraying, read-out: Post-emergence activity AVEFA (100=total damage to plant; 0=no damage to plant). The procedure: as §1, §2
Data set [9] has as its system Digitaria sanguinalis (DIGSA). The description is as above. The settings on record: 360 h, rate 125 g/ha, evaluated 15 days after spraying, read-out: Post-emergence activity DIGSA (100=total damage to plant; 0=no damage to plant). The class given is in vivo. Here is the method:
as §1, §2

Data set [10] relates to Echinochloa crus-galli (ECHCG). Described as above. The settings on record: 360 h, rate 125 g/ha, evaluated 15 days after spraying, read-out: Post-emergence activity ECHCG (100=total damage to plant; 0=no damage to plant). Type of data set: in vivo. Here is the method:
as §1, §2

The test system of data set [11] is Lolium perenne (LOLPE). Described as above. The class given is in vivo. The settings on record: 360 h, rate 125 g/ha, evaluated 15 days after spraying, read-out: Post-emergence activity LOLPE (100=total damage to plant; 0=no damage to plant). Here is the method: as §1, §2
Data set [12] concerns Setaria faberi (SETFA). Described as above. Type of data set: in vivo. Particulars: 360 h, rate 125 g/ha, evaluated 15 days after spraying, read-out: Post-emergence activity SETFA (100=total damage to plant; 0=no damage to plant). The procedure: as §1, §2

Molecules are shown by their SMILES.

With `CCc1ccc(-c2ccc(Cl)cc2)cc1C1=C(O)C2CCCC(C1=O)C2=O` (stereo not shown) [Compound B-53], the melting point worked out at 79.5 °C.
Take `CCc1ccc(-c2ccc(Cl)cc2)cc1C1=C(O)C(C)(CC)OC(C)(CC)C1=O` (stereo not shown) [Compound A-35]: the pest or weed control at 250 g/ha is 70% in data set [1]; 70% in the data set with Avena fatua (AVEFA) [2]; 80% in [3]; 100% in data set [4]; 80% with Lolium perenne (LOLPE) [5]; 100% with Setaria faberi (SETFA) [6]. Also, the pest or weed control at 125 g/ha in data set [7] was determined as 80%; in the data set with Avena fatua (AVEFA) [8], 50%; in data set [9], 80%; in [10] it was 100%; with Lolium perenne (LOLPE) [11], 70%; in the data set with Setaria faberi (SETFA) [12] it was 80%.
`Cc1cc(-c2ccc(C)c(C3=C(O)C(C)(C)OC(C)(C)C3=O)c2)ccc1Cl` [Compound A-53]: the pest or weed control at 250 g/ha in data set [1] came to 10%; in the data set on Avena fatua (AVEFA) [2], 0%; in data set [3] it was 60%; in [4], 10%; in the data set with Lolium perenne (LOLPE) [5] it was 0%; in the data set with Setaria faberi (SETFA) [6] it was 10%. The pest or weed control at 125 g/ha is 30% in data set [7]; 10% in the data set with Avena fatua (AVEFA) [8]; 50% in [9]; 90% in data set [10]; 10% with Lolium perenne (LOLPE) [11]; 0% in the data set with Setaria faberi (SETFA) [12].
In the case of `CCc1ccc(-c2ccc(Cl)cc2)cc1C1=C(O)C(C)(C)OC(C)(CC)C1=O` (single isomer, unassigned) [Compound A-34], the pest or weed control at 250 g/ha worked out at 60% in [1]; 50% with Avena fatua (AVEFA) [2]; 100% in data set [3]; 100% in [4]; 100% in the data set with Lolium perenne (LOLPE) [5]; 100% in the data set on Setaria faberi (SETFA) [6]. Further, the pest or weed control at 125 g/ha in data set [7] was found to be 70%; in the data set on Avena fatua (AVEFA) [8], 20%; in data set [9] it was 90%; in data set [10], 100%; with Lolium perenne (LOLPE) [11], 80%; in the data set on Setaria faberi (SETFA) [12] it was 90%.
With `Cc1ccc(-c2ccc(C(F)(F)F)cc2)cc1C1=C(O)C(C)(C)OC(C)(C)C1=O` [Compound A-10], the pest or weed control at 250 g/ha in data set [1] was 40%; with Avena fatua (AVEFA) [2], 50%; in data set [3], 100%; in data set [4] it was 100%; with Lolium perenne (LOLPE) [5] it was 60%; in the data set on Setaria faberi (SETFA) [6] it was 100%. Further, the pest or weed control at 125 g/ha in data set [7] was 30%; in the data set with Avena fatua (AVEFA) [8], 20%; in data set [9] it was 100%; in [10], 100%; with Lolium perenne (LOLPE) [11] it was 0%; in the data set on Setaria faberi (SETFA) [12], 50%.
As for `CCc1ccc(-c2ccc(Cl)cc2)cc1C1=C(O)C(C)(C)S(=O)(=O)C(C)(C)C1=O` [Compound C-3], the pest or weed control at 250 g/ha in data set [1] came out at 60%; in the data set on Avena fatua (AVEFA) [2] it was 80%; in [3] it was 90%; in data set [4], 70%; in the data set with Lolium perenne (LOLPE) [5] it was 10%; with Setaria faberi (SETFA) [6], 60%. Further, the pest or weed control at 125 g/ha in [7] was 70%; with Avena fatua (AVEFA) [8] it was 80%; in [9] it was 100%; in data set [10] it was 100%; in the data set with Lolium perenne (LOLPE) [11], 50%; in the data set with Setaria faberi (SETFA) [12] it was 90%.
Consider `Cc1ccc(-c2ccc(Cl)c(Cl)c2)cc1C1=C(O)C(C)(C)OC(C)(C)C1=O` [Compound A-48], for which the pest or weed control at 250 g/ha in [1] worked out at 30%; in the data set on Avena fatua (AVEFA) [2], 10%; in [3], 60%; in [4] it was 100%; in the data set with Lolium perenne (LOLPE) [5] it was 0%; with Setaria faberi (SETFA) [6], 60%. For the same compound, the pest or weed control at 125 g/ha in data set [7] was 70%; in the data set on Avena fatua (AVEFA) [8], 40%; in data set [9], 40%; in [10] it was 40%; in the data set with Lolium perenne (LOLPE) [11], 0%; with Setaria faberi (SETFA) [12], 40%.
For `CCc1ccc(-c2ccc(Cl)cc2)cc1C1=C(O)C(C)(C)C(=O)C(C)(C)C1=O` [Compound B-1], the pest or weed control at 500 g/ha was 40% in data set [1]; 60% in the data set with Avena fatua (AVEFA) [2]; 100% in [3]; 100% in data set [4]; 60% with Lolium perenne (LOLPE) [5]; 100% in the data set on Setaria faberi (SETFA) [6]. In addition, the pest or weed control at 125 g/ha in data set [7] amounted to 30%; with Avena fatua (AVEFA) [8], 30%; in data set [9], 100%; in data set [10], 100%; in the data set with Lolium perenne (LOLPE) [11], 80%; with Setaria faberi (SETFA) [12] it was 90%.
`Cc1ccc(-c2ccc(F)cc2)cc1C1=C(O)C(C)(C)OC(C)(C)C1=O` [Compound A-9]: the pest or weed control at 500 g/ha in [1] came out at 20%; in the data set with Avena fatua (AVEFA) [2], 30%; in [3], 50%; in data set [4], 50%; in the data set with Lolium perenne (LOLPE) [5] it was 20%; in the data set with Setaria faberi (SETFA) [6], 60%. Besides, the pest or weed control at 125 g/ha in data set [7] was found to be 50%; in the data set with Avena fatua (AVEFA) [8] it was 0%; in data set [9] it was 80%; in [10] it was 80%; in the data set with Lolium perenne (LOLPE) [11], 30%; with Setaria faberi (SETFA) [12], 80%.

The melting point is the temperature, or range, at which the solid turns liquid.
